Assay results published in US7214669B2, “Tetracycline derivatives and methods of use thereof” (Tetragenex Pharmaceuticals, Inc., priority 2001, dated 2007).
“And” between values parts separate entries of the source, which are not always exact repeats. Identical values can stand only once. Counter-ions that a name gives are not always drawn.

Legend:
Human recombinant MMP14 = Human recombinant MMP14 (Homo sapiens, UniProt P50281); assay: MMP14 (MTI-MMP) inhibition, 14C collagen release; assay type: biochemical; settings: 35° C., 15 hours; read-out: MMP-14 inhibitory activity, IC50
Procedure: Protocol for Measuring MMP14 (MTI-MMP) Inhibition by Tetracycline Derivatives
MMP14 activity was determined by the release of soluble ^14C labelled collagen fragments from ^14C acetylated rat skin type I collagen (Methods in Enzymology 80 711, 1981).
• 100 μg ^14C labelled collagen (5–6000 dpm) • 50 mM Tris HCL pH 7.9 • 15 mM CaCl2 0.02% azide • Human recombinant MMP14 50–100 nM • ±Tetracycline (up to 1 mM) in a total volume of 300 μl.
Incubations were at 35° C. for 15 hours. Uncleaved collagen fibrils (which form within the first 10 minutes) were removed by centrifugation at 10,000 g 4° C. 10 minutes 200 μl supernatant were counted in Packard Opti Phase Supermix scintillation fluid using a scintillation counter. Only data derived from within the linear part of the assay (10–70% lysis of the collagen) were utilized. Based on percentage inhibition of the activity of MMP1 alone by a range of concentrations of each sample, the IC50 value for each tetracycline was calculated.

Human recombinant MMP1 = molecular target: T1, Human recombinant MMP1 (Homo sapiens, UniProt P03956); assay: MMP1 (Collagenase-1) inhibition, 14C collagen release; assay type: biochemical; settings: 35° C., 5 hours; read-out: MMP-1 inhibitory activity, IC50
T1 sequence (P03956 100-469): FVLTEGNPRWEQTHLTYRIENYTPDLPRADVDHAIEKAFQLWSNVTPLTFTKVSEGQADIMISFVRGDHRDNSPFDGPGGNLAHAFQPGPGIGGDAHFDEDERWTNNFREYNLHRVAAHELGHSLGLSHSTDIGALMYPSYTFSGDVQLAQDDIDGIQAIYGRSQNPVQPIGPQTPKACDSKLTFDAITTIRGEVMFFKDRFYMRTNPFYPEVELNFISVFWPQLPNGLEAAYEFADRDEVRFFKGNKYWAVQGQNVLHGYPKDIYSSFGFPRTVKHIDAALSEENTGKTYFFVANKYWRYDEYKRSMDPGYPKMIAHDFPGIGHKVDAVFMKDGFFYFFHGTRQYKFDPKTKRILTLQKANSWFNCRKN

MMP2 (Gelatinase A) = molecular target: T2, MMP2 (Gelatinase A) (Homo sapiens, UniProt P08253); assay: MMP2 (Gelatinase A) inhibition, 14C gelatin release; assay type: biochemical; settings: 37° C., 16 hours; read-out: MMP-2 inhibitory activity, IC50
T2 sequence (P08253 110-660): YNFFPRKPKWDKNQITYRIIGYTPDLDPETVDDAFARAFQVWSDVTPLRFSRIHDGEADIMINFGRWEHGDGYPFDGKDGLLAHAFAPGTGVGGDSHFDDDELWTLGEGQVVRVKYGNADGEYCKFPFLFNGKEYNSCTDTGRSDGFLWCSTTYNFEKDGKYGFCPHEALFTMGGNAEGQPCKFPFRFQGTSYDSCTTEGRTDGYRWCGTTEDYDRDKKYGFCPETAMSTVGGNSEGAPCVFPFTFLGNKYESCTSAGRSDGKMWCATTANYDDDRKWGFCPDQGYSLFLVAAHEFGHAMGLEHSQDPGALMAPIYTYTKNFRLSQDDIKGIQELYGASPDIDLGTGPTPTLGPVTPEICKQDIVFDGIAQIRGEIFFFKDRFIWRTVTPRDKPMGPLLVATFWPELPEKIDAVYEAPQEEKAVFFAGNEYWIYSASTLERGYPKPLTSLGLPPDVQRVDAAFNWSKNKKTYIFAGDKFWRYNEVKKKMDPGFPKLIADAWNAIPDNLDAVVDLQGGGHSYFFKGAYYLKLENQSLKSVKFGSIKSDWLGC
Procedure: Protocol for Measuring MMP2 (Gelatinase A) Inhibition
MMP2 activity was determined by the release of trichloracetic acid, TCA, soluble fragments from ^14C acetylated rat skin type I gelatin (Methods in Enzymology 248, 470, 1995. Biochem. J. 195, 1981)
• 100 μg ^14C labelled gelatin (type I collagen denatured 60° C. 20 min) • 50 mM Tris HCl pH 7.9 • 15 mM CaCl2, 0.02% azide • Human recombinant MMP1, 0.1–0.5 nM • ±Tetracycline (up to 1 MM) in a total volume of 250 μl.
Incubations were set at 37° C. for 16 hours. The reaction was stopped by cooling the incubations and addition of 50 μl cold 90% (w/v) trichloracetic acid with careful mixing. TCA precipitation was allowed to proceed for 15 minutes at 4° C. prior to cetrifugation at 10,000 g for 10 minutes at 4° C. 200 μl of the TCA supernatant was taken for the determination of radioactive content by scintillation counting (Packard Opti Phase Supermix scintillation fluid). Only data derived from within the linear part of the assay (10–70% lysis) were utilized. The percentage inhibition of MMP2 by each tetracycline concentration was plotted to derive the IC50 value, using linear regression analysis.

Human recombinant MMP3 = Human recombinant MMP3 (Homo sapiens, UniProt P08254); assay: MMP3 (Stromelysin 1) inhibition, 14C casein release; assay type: biochemical; settings: 37° C., 16 hours; read-out: MMP-3 inhibitory activity, IC50
Human recombinant MMP9 = Human recombinant MMP9 (Homo sapiens, UniProt P14780); assay: MMP9 (Gelatinase B) inhibition, 14C gelatin release; assay type: biochemical; settings: 37° C., 16 hours; read-out: MMP-9 inhibitory activity, IC50
Procedure: Protocol for Measuring MMP9 (Gelatinase B) Inhibition
MMP9 activity was determined by the release of trichloracetic acid, TCA soluble fragments from ^14C acetylated rat skin type I (Methods in Enzymology 248, 470, 1995. Biochem. J. 195, 1981)
• 100 μg ^14C labelled gelatin (collagen denatured 60° C. 20 min) • 50 mM Tris HCl pH 7.9 • 15 mM CaCl2, 0.02% azide • Human recombinant MMP9, 1.2–2 nM • ±Tetracycline (up to 1 mM) in a total volume of 250 μl.
Incubations were at 37° C. for 16 hours. The incubations were stopped by cooling the incubations and addition of 50 μl cold 90% (w/v) trichloracetic acid with careful mixing. TCA precipitation was allowed to proceed for 15 minutes at 4° C. prior to centrifugation at 10,000 g for 10 minutes at 4° C. 200 μl of the TCA supernatant was taken for the determination of radioactive content by scintillation counting (Packard Opti Phase Supermix scintillation fluid). Only data derived from within the linear part of the assay (10–70% lysis) were utilized. The percentage inhibition of MMP9 by each tetracycline concentration were plotted to derive the IC50 value.

[1] = system: PC-3 ML human prostate cancer cells; assay: Membrane Invasion Culture System (MICS) chemo-invasion assay; assay type: cell-based; settings: 24 hours, + = increased invasiveness
Source text: (§1) Another objective was to analyze the effects of specific, tetracycline derived compounds on the in-vitro chemo-invasive potential of: • C8161 human melanoma cells • MDA-MB-231 human breast cancer cells • PC3 human prostate cancer cells • RPM18226 human myeloma cancer cells • Ark human myeloma cancer cells • Arp-1 human myeloma cancer cells
(§2) The Membrane Invasion Culture System (MICS) in vitro chemo-invasion assay was chosen to measure changes in the invasive potential of specific human cancer cells in response to tetracycline derived compounds. Stock solutions of each compound were hydrated in water containing 2% DMSO and pH 10.0. Upon solubilization, HCl was added to the solution to establish a pH of 7.5–8.0. This solution was then wrapped in foil and kept at 4° C. during the 24 hours of assay. Fresh compound was prepared for each assay. The in vitro chemoinvasion analyses for tumor cell invasiveness are performed using the Membrane Invasion Culture System (MICS) as previously described.
(§3) The MICS system is a thermally treated plastic manifold system consisting of two matched sets of plates containing fourteen wells, 13 mm in diameter. Interposed between these plates was a polycarbonate filter containing 10 μm pores and coated with a defined matrix composed of human laminin/collagen IV/gelatin that formed a 35 μm thick barrier between the top and bottom sections of the wells in MICS. Prior to placing this barrier in place, the lower wells were filled with serum-free RPMI culture medium made 50% in conditioned medium obtained from 2-day-old cultures of human fibroblasts which had been cleared of cells and cellular debris by either centrifugation, or filtering through a 0.45 μm sterile filter. The barrier was then placed on the lower wells and fresh serum-free medium added to the upper wells after assembly of the system. Fifty thousand tumor cells were then added to the wells either in the presence of the compound, or the DMSO vehicle (the controls). Of the 12 assay wells on each manifold, 3 randomized wells acted as controls, 3 wells received 1 μg/ml of compound, 3 received 10 μg/ml and 3 received 25 μg/ml. After 24 hours, cells and media were removed from the lower wells and replaced by phosphate buffered saline plus 2 mM EDTA. This solution was used to remove all cells from the lower well, and this wash was added to the recovered cells plus medium from the same well. These samples were then collected onto a polylysine containing polycarbonate membrane containing 3 μm pores using a Dot-Blot manifold system. These collection filters were then fixed in methanol, and stained using Wright's stain (Leukostat staining kit) in situ. The filters were then mounted on microscope slides with microscope immersion oil (which reduced the light refraction from the pores) and 5 microscopic fields were counted to calculate the number of cells which invaded through the membrane over the 24 hour period. These numbers were then statistically analyzed as discussed below.

[2] = system: C8161 human melanoma cells; assay: as above; assay type: cell-based; settings: 24 hours, + = increased invasiveness
Source text: as §1, §2, §3

[3] = system: MDA-MB-231 human breast cancer cells; assay: as above; assay type: cell-based; settings: 24 hours, + = increased invasiveness
Source text: as §1, §2, §3

[4] = system: RPMI-8226 human myeloma cancer cells; assay: as above; assay type: cell-based; settings: 24 hours, + = increased invasiveness
Source text: as §1, §2, §3

Sequence of Human recombinant MMP9 (P14780 94-707): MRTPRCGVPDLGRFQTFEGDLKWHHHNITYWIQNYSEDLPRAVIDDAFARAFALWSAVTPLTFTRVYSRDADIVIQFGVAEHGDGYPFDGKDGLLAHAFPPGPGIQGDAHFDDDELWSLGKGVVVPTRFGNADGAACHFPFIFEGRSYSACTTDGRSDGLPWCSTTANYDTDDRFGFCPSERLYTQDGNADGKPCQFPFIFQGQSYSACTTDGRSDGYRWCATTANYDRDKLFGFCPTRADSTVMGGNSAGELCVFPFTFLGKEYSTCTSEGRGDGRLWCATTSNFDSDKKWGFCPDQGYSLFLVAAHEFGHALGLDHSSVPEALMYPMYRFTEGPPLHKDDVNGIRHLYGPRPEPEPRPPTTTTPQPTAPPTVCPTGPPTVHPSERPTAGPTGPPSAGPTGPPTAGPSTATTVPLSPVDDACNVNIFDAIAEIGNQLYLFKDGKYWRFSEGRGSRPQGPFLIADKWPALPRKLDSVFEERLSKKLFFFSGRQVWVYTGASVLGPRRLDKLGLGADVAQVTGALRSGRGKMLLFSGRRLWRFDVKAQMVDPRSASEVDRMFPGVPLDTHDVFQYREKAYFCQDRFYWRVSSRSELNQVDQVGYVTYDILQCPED
Sequence of Human recombinant MMP3 (P08254 100-477): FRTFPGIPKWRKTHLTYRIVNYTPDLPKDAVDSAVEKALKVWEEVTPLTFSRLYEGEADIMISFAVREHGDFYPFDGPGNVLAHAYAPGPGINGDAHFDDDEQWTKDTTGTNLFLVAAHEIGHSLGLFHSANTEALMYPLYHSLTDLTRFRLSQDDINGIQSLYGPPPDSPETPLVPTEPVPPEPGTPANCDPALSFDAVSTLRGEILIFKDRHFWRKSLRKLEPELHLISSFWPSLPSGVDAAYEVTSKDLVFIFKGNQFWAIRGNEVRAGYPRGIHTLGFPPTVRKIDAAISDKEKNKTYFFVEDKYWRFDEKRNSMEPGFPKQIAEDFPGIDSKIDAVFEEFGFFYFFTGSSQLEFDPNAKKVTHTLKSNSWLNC

Compound	IC50 (Human recombinant MMP14) [µM]	IC50 (Human recombinant MMP1) [µM]	IC50 (MMP2 (Gelatinase A)) [µM]	IC50 (Human recombinant MMP3) [µM]	IC50 (Human recombinant MMP9) [µM]	percent inhibition, PC-3 ML (Prostrate) ([1]; 1 ug/mL)	percent inhibition, PC-3 ML (Prostrate) ([1]; 10 ug/mL)	percent inhibition, PC-3 ML (Prostrate) ([1]; 25 ug/mL)	percent inhibition, C8161 (Melanoma) ([2]; 1 ug/mL)	percent inhibition, C8161 (Melanoma) ([2]; 10 ug/mL)	percent inhibition, C8161 (Melanoma) ([2]; 25 ug/mL)	percent inhibition, MDA-MB-231 (Breast) ([3]; 1 ug/mL)	percent inhibition, MDA-MB-231 (Breast) ([3]; 10 ug/mL)	percent inhibition, MDA-MB-231 (Breast) ([3]; 25 ug/mL)	percent inhibition, RPMI-8226 (Multiple Myeloma) ([4]; 1 ug/mL)	percent inhibition, RPMI-8226 (Multiple Myeloma) ([4]; 10 ug/mL)	percent inhibition, RPMI-8226 (Multiple Myeloma) ([4]; 25 ug/mL)	also measured
7-Cyclobutylmethylamino-6-deoxy-5-hydroxytetracycline H2SO4 [Compound 33]	94	295	263	205	142	–	–	–	–	–	–	–	–	–	–	–	–	–
CC1c2c(N)cc([N+](=O)[O-])c(O)c2C(=O)C2=C(O)C3(O)C(=O)C(C(N)=O)=C(O)C(N(C)C)C3C(O)C21 (stereo not drawn) [Compound 14, 7-Amino-6-deoxy-5-hydroxy-9-nitrotetracycline H2SO4]	386	279	–	> 1000	–	–	–	–	–	–	–	–	–	–	–	–	–	–
CC1c2c([N+](=O)[O-])cc(C(C)(C)C)c(O)c2C(=O)C2=C(O)C3(O)C(=O)C(C(N)=O)=C(O)CC3C(O)C21 (stereo not drawn) [Compound 40, 7-Nitro-9-tertbutyl-4-dedimethylamino-6-deoxy-5-hydroxy-tetracycline H2SO4]	29	560	362	91	–	+1%	+7%	+4%	+1%	+5%	+4%	9%	15%	20^B percent	16%	11%	9%	–
CC(=O)Nc1cc(N=[N+]=[N-])c(O)c2c1C(C)C1C(=C(O)C3(O)C(=O)C(C(N)=O)=C(O)C(N(C)C)C3C1O)C2=O (stereo not drawn) [Compound 42, 7-Acetylamino-9-azido-6-deoxy-5-hydroxy-tetracycline]	428	–	606	1560	405	–	–	–	–	–	–	–	–	–	–	–	–	–
CC1c2c([N+]#N)cc(C(C)(C)C)c(O)c2C(=O)C2=C(O)C3(O)C(=O)C(C(N)=O)=C(O)C(N(C)C)C3C(O)C21 (stereo not drawn) [Compound 43, 9-tertbutyl-6-deoxy-5-hydroxytetracycline-7-diazonium H2SO4]	–	600	2480	174	319	–	–	–	–	–	–	–	–	–	–	–	–	–
CC1c2c(N)cc(C(C)(C)C)c(O)c2C(=O)C2=C(O)C3(O)C(=O)C(C(N)=O)=C(O)C(N(C)C)C3C(O)C21 (stereo not drawn) [Compound 44, 7-Amino-9-tertbutyl-6-deoxy-5-hydroxytetracycline H2SO4]	–	1440	1470	224	591	–	–	–	–	–	–	–	–	–	–	–	–	–
CC1c2c(N=[N+]=[N-])cc(C(C)(C)C)c(O)c2C(=O)C2=C(O)C3(O)C(=O)C(C(N)=O)=C(O)C(N(C)C)C3C(O)C21 (stereo not drawn) [Compound 45, 7-Azido-9-tertbutyl-6-deoxy-5-hydroxytetracycline H2SO4]	–	384	2450	194	6630	–	–	–	–	–	–	–	–	–	–	–	–	–
CC1c2ccc(-c3ccc(F)cc3)c(O)c2C(=O)C2=C(O)C3(O)C(=O)C(C(N)=O)=C(O)C(N(C)C)C3C(O)C21 (stereo not drawn) [Compound 51, 9-(4-fluorophenyl)-6-deoxy-5-hydroxytetracycline]	–	–	–	–	–	+4%	+13%	4%	+9%	+31^B percent	+122^B percent	+15^B percent	+18%	25^B percent	14%	+26^B percent	+2%	–
CN(C)C1C(O)=C(C(N)=O)C(=O)C2(O)C(O)=C3C(=O)c4c(O)ccc(Cl)c4C(C)(O)C3CC12 (stereo not drawn) [Compound 52, 4-Epi-7-Chlorotetracycline hydrochloride]	–	–	–	–	–	–	–	–	5%	15%	30%	5%	12%	52^B percent	–	–	–	percent inhibition, PC-3 ML (Prostrate) ([1]; 1 ug/mL, hydrochloride): 52^B percent and 31^B percent; percent inhibition, PC-3 ML (Prostrate) ([1]; 10 ug/mL, hydrochloride): 68^B percent and 48^B percent; percent inhibition, PC-3 ML (Prostrate) ([1]; 25 ug/mL, hydrochloride): 70^B percent and 63^B percent; percent inhibition, RPMI-8226 (Multiple Myeloma) ([4]; 10 ug/mL, hydrochloride): 26^B percent and 33^B percent; percent inhibition, RPMI-8226 (Multiple Myeloma) ([4]; 25 ug/mL, hydrochloride): 68^B percent and 46^B percent
CN(C)[C@@H]1C(=O)C(C(N)=O)=C(O)[C@@]2(O)C(=O)C3=C(O)c4c(O)cccc4C[C@H]3C[C@@H]12.Cl [Compound 53, 6-Demethyl-6-deoxytetracycline HCl]	–	–	–	–	–	29^B percent	21%	45^B percent	+40^B percent	+158^B percent	83^B percent	9%	49^B percent	83^B percent	+95^B percent	18%	84^B percent	–
